US10023602B2, “Hamamelitannin analogues and uses thereof” (Universiteit Gent, priority 2014, dated 2018)

Legend:
[1] = system: methicillin resistant S. aureus Mu50 strain (S. aureus ATCC700699) biofilm; assay: Biofilm susceptibility to vancomycin, pre-treatment regimen (biofilm formed in presence of compound, then vancomycin); assay type: cell-based; conditions: for Pretreat (100 μM): percentage Colony Forming Units (CFU's) per biofilm: compound 100 μM during biofilm formation; for EC50: concentration needed to get 50% killing compared to antibiotic alone (VAN 20 μg/ml) and complete killing, read-out: Pretreat. (EC50)
Procedure, shortened: (§1)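 Mu50 biofilms from 10^8 CFU/ml inoculum (4 h adhesion, then 20 h, 37 °C). Pre-treatment: compound (0.1-250 μM) present during biofilm formation, then vancomycin 20 μg/ml alone 24 h; combination: mature biofilm given vancomycin 20 μg/ml plus compound 24 h. Survivors counted by plating versus vancomycin alone.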

[2] = system: methicillin resistant S. aureus Mu50 strain (S. aureus ATCC700699) biofilm; assay: Biofilm susceptibility to vancomycin, combination treatment regimen (mature biofilm treated with compound plus vancomycin); assay type: cell-based; conditions: for Combin. (100 μM): percentage Colony Forming Units (CFU's) per biofilm: compound 100 μM together with VAN 20 μg/ml on mature biofilm; for EC50: concentration needed to get 50% killing compared to antibiotic alone (VAN 20 μg/ml) and complete killing, read-out: Combin. (EC50)
Procedure, shortened: as §1

[3] = then VAN 20 μg/ml, compared to the untreated (negative) control
[4] = compared to the untreated (negative) control

Structure (SMILES)	Pretreat (100 μM): percentage Colony Forming Units (CFU's) per biofilm [1, 3] [percentage]	Combin. (100 μM): percentage Colony Forming Units (CFU's) per biofilm [2, 4] [percentage]	Pretreat. (25 μM): percentage Colony Forming Units (CFU's) per biofilm ([1]; compound 25 μM during biofilm formation, then VAN 20 μg/ml, compared to the untreated (negative) control) [percentage]	EC50 [1] [µM]	Combin. (25 μM): percentage Colony Forming Units (CFU's) per biofilm ([2]; compound 25 μM together with VAN 20 μg/ml on mature biofilm, compared to the untreated (negative) control) [percentage]	EC50 [2] [µM]
O=C(NC[C@]1(O)CO[C@H](CNC(=O)c2ccncn2)[C@H]1O)c1ccccc1 [compound 204, N-(((2R,3R,4S)-4-(benzamidomethyl)-3,4-dihydroxytetrahydrofuran-2-yl)methyl)pyrimidine-4-carboxamide]	13.04	15.85				
Cc1cccc(C(=O)NC[C@H]2OC[C@@](O)(CNC(=O)c3ccccc3)[C@@H]2O)c1 [compound 160, N-(((2R,3R,4S)-4-(benzamidomethyl)-3,4-dihydroxytetrahydrofuran-2-yl)methyl)-3-methylbenzamide]	23.09	23.39				
O=C(NC[C@]1(O)CO[C@H](CNC(=O)c2ccccc2Cl)[C@H]1O)c1ccccc1F [compound 245, 2-chloro-N-(((2R,3R,4S)-4-((2-fluorobenzamido)methyl)-3,4-dihydroxytetrahydrofuran-2-yl)methyl)benzamide]			61.75	48.6	44.14	62.2
Cc1ccccc1C(=O)NC[C@H]1OC[C@@](O)(CNC(=O)c2ccccc2)[C@@H]1O [compound 169, N-(((2R,3R,4S)-4-(benzamidomethyl)-3,4-dihydroxytetrahydrofuran-2-yl)methyl)-2-methylbenzamide]	11.68	13.87		13.7		52.6
O=C(NC[C@]1(O)CO[C@H](CNC(=O)c2ccccc2Cl)[C@H]1O)c1ccccc1 [compound 171, N-(((2R,3R,4S)-4-(benzamidomethyl)-3,4-dihydroxytetrahydrofuran-2-yl)methyl)-2-chlorobenzamide]	11.56	7.776		0.389		7.98
O=C(NC[C@H]1OC(O)[C@@](O)(CNC(=O)c2cccc(O)c2)[C@@H]1O)c1cccc(O)c1 (stereo partly drawn) [compound 19, N,N′-(((2R,3R,4R)-3,4,5-trihydroxytetrahydrofuran-2,4-diyl)bis(methylene))bis(3-hydroxybenzamide)]	19.78	27.23		38.5		52.3
CC(C)(C)C(=O)NC[C@H]1OC[C@@](O)(CNC(=O)c2ccccc2)[C@@H]1O [compound 226, N-(((3S,4R,5R)-3,4-dihydroxy-5-(pivalamidomethyl)tetrahydrofuran-3-yl)methyl)benzamide]	50.74	28.64				
CN(C)c1ccccc1C(=O)NC[C@H]1OC[C@@](O)(CNC(=O)c2ccccc2)[C@@H]1O [compound 174, N-(((2R,3R,4S)-4-(benzamidomethyl)-3,4-dihydroxytetrahydrofuran-2-yl)methyl)-2-(dimethylamino)benzamide]	28.01	11.11				
CN(C)c1ccc(C(=O)NC[C@H]2OC[C@@](O)(CNC(=O)c3ccccc3)[C@@H]2O)cc1 [compound 156, N-(((2R,3R,4S)-4-(benzamidomethyl)-3,4-dihydroxytetrahydrofuran-2-yl)methyl)-4-(dimethylamino)benzamide]	16.58	11.27				
O=C(NC[C@]1(O)CO[C@H](CNC(=O)c2ccc(Cl)cc2Cl)[C@H]1O)c1ccccc1 [compound 193, N-(((2R,3R,4S)-4-(benzamidomethyl)-3,4-dihydroxytetrahydrofuran-2-yl)methyl)-2,4-dichlorobenzamide]	10.80	11.25		11.4		11.7
CC(C)S(=O)(=O)NC[C@H]1OC[C@@](O)(CNC(=O)c2ccccc2)[C@@H]1O [compound 213, N-(((3S,4R,5R)-3,4-dihydroxy-5-(((1-methylethyl)sulfonamido)methyl)tetrahydrofuran-3-yl)methyl)benzamide]	28.32	32.67				
Cc1ccc(C(=O)NC[C@H]2OC[C@@](O)(CNC(=O)c3ccccc3)[C@@H]2O)cc1 [compound 151, N-(((2R,3R,4S)-4-(benzamidomethyl)-3,4-dihydroxytetrahydrofuran-2-yl)methyl)-4-methylbenzamide]	22.36	24.59				
O=C(NC[C@]1(O)CO[C@H](CN2Cc3ccccc3C2=O)[C@H]1O)c1ccccc1 [compound 230, N-(((3S,4R,5R)-3,4-dihydroxy-5-((1-oxoisoindolin-2-yl)methyl)tetrahydrofuran-3-yl)methyl)benzamide]	24.90	30.15		57.7		60.2
CS(=O)(=O)NC[C@H]1OC[C@@](O)(CNC(=O)c2ccccc2)[C@@H]1O [compound 211, N-(((3S,4R,5R)-3,4-dihydroxy-5-(methylsulfonamidomethyl)tetrahydrofuran-3-yl)methyl)benzamide]	31.02	38.03				
O=C(NC[C@]1(O)CO[C@H](CNC(=O)c2c(Cl)cccc2Cl)[C@H]1O)c1ccccc1 [compound 192, N-(((2R,3R,4S)-4-(benzamidomethyl)-3,4-dihydroxytetrahydrofuran-2-yl)methyl)-2,6-dichlorobenzamide]	31.41	43.74		59.2		136
O=C(NC[C@]1(O)CO[C@H](CNCc2ccccc2)[C@H]1O)c1ccccc1 [compound 228, N-(((3S,4R,5R)-5-((benzylamino)methyl)-3,4-dihydroxytetrahydrofuran-3-yl)methyl)benzamide]	18.68	22.13		41.2		45.2
O=C(NC[C@]1(O)CO[C@H](CNC(=O)c2ccccc2F)[C@H]1O)c1ccccc1 [compound 170, N-(((2R,3R,4S)-4-(benzamidomethyl)-3,4-dihydroxytetrahydrofuran-2-yl)methyl)-2-fluorobenzamide]	11.84	16.30				
O=C(NC[C@]1(O)CO[C@H](CN2C(=O)c3ccc(Cl)cc3C2=O)[C@H]1O)c1ccccc1 [compound 227, N-(((3S,4R,5R)-5-((5-chloro-1,3-dioxoisoindolin-2-yl)methyl)-3,4-dihydroxytetrahydrofuran-3-yl)methyl)benzamide]	77.57	61.81				
O=C(NC[C@]1(O)CO[C@H](CNC(=O)c2ccccc2C(F)(F)F)[C@H]1O)c1ccccc1 [compound 175, N-(((2R,3R,4S)-4-(benzamidomethyl)-3,4-dihydroxytetrahydrofuran-2-yl)methyl)-2-(trifluoromethyl)benzamide]	22.48	34.85				
O=C(NC[C@]1(O)CO[C@H](CNC(=O)c2ccccc2Br)[C@H]1O)c1ccccc1 [compound 178, N-(((2R,3R,4S)-4-(benzamidomethyl)-3,4-dihydroxytetrahydrofuran-2-yl)methyl)-2-bromobenzamide]	4.10	17.51		9.85		19.7
